Experimental data published in the NIST ThermoML archive (doi:10.1016/j.jct.2012.06.030).

Assay: molar heat capacity at constant pressure; xn = mol fraction of the nth substance listed
Settings: 101 kPa, Liquid, Small sample (50 mg) DSC

CCCCCC[n+]1ccc2ccccc2c1.N#C[S-] [2-hexylisoquinolinium thiocyanate] + O
molar heat capacity at constant pressure [J/K/mol]
Settings | x1 = 0.2887 | x1 = 0.4013 | x1 = 0.5043 | x1 = 0.6059 | x1 = 0.6997 | x1 = 0.7864 | x1 = 0.8824 | x1 = 1
288.15 K | 189 | 220 | 265 | 298 | 333 | 347 | 390 | 433
293.15 K | 191 | 222 | 267 | 300 | 335 | 350 | 392 | 436
298.15 K | 192 | 224 | 269 | 302 | 337 | 352 | 395 | 439
303.15 K | 193 | 225 | 271 | 304 | 340 | 354 | 397 | 442
308.15 K | 195 | 226 | 272 | 306 | 341 | 357 | 400 | 445
313.15 K | 196 | 228 | 274 | 308 | 343 | 359 | 402 | 447
318.15 K | 197 | 229 | 276 | 309 | 346 | 361 | 404 | 450
323.15 K | 198 | 230 | 277 | 311 | 348 | 363 | 406 | 453
328.15 K | 198 | 232 | 278 | 312 | 350 | 365 | 409 | 456
333.15 K | 199 | 233 | 280 | 314 | 352 | 367 | 411 | 458
338.15 K | 200 | 234 | 281 | 316 | 353 | 369 | 413 | 461
343.15 K | 201 | 235 | 283 | 318 | 355 | 371 | 415 | 463
